Results on nine molecules are retold here after US8034810B2, “Arylsulfonamido-substituted hydroxamic acid derivatives” (Novartis AG, priority 1999, dated 2011).

One may read the pIC50 as −log10 of the IC50, conventionally taken in molar units. A high value points to a small IC50.

pIC50: −log10 of the molar value. Structures can show the parent of a compound that is named as a salt.

This assay deals with T1, MMP9 (Homo sapiens, UniProt P14780).
T1 construct: endogenous in cells; host or cells: THP1 human monocytic leukemia cells, TPA-stimulated; enzyme purified from culture medium
T1 sequence (P14780 107-707 limits assumed): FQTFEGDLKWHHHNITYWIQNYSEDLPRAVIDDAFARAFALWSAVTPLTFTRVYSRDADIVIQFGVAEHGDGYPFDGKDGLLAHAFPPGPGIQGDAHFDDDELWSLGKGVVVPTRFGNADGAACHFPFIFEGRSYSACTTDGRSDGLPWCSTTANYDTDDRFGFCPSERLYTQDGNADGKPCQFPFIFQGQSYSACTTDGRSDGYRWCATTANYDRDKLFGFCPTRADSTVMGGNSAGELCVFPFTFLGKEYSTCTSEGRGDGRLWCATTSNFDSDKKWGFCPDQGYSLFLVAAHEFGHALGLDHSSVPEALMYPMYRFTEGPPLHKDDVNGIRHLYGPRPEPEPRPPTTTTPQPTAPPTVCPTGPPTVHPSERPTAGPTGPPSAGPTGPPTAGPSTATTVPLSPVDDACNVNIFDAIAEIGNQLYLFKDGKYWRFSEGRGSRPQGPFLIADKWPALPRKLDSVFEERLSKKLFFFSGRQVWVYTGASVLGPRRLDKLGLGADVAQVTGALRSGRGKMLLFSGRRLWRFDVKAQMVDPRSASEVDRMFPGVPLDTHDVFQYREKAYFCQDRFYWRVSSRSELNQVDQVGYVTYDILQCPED
Nature of the assay: Assay of MMP9, fluorogenic peptide substrate. The conditions noted are these: activated MMP9 from THP1 cells, 0.5 nM; substrate 25 μM. The class given is biochemical. As for the experimental part: MMP9 is prepared form the culture medium of THP1 human monocytic leukemia cells treated with TPA. THP1 cells are maintained in a culture of DMEM/F-12 with 10% FCS and stimulated to produce pro-MMP9 with TPA (1 nM) in serum-free medium for 48 h. All purification procedures are carried out at 4° C. The 1 liters of culture medium is concentrated to 100 ml by Centricon (Amicon) and applied to a column (1×8 cm) of gelatin-sepharose (Pharmacia) equilibrated with 50 mM Tris-Cl (pH=8.0), 300 mM NaCl. The fraction containing pro-MMP-9 is eluted with 10% DMSO in 50 mM Tris-Cl (pH=8.0), 300 mM NaCl, then dialyzed against 50 mM Tris-Cl (pH 7.5), 150 mM NaCl. The fraction is concentrated by Centricon and subjected to column chromatography of Sephadex G200 (2×20 cm) equilibrated with 50 mM Tris-Cl (pH=7.5) containing 150 mM NaCl. The purified Pro-MMP9 is stored at −80° C. as a stock and the necessary amount of pro-form is used for activation. Pro-MMP9 is activated with 1 mM aminophenyl mercury acetate (APMA, ICN Pharmaceuticals) in 50 mM Tris-Cl (pH=7.5) containing 150 mM NaCl, 10 mM CaCl2 and 0.05% Brij-35 (MMP Assay Buffer) for 18 h at 37° C., and the APMA is removed by extensive dialysis against MMP Assay Buffer. The activated MMP9 is stored frozen at −80° C. until use.
The activated MMP-9 (82 kDa) is then used to screen compounds. A fluorogenic peptide, 2-N-methylaminobenzoic acid (Nma)-Gly-Pro-Gln-Gly-Leu-Ala-Gly-Gln-Lys-N^ε-(2,4-dinitrophenyl)(Dnp)-NH2 (Peptide Institute, Osaka, Japan) is used as the only substrate in all MMPs assay in this study at 25 μM. Stock solutions of the substrate are prepared in 100% DMSO at a concentration 1.0 mM. Assays are performed in MMP Assay Buffer. The reaction mixture is added in duplicate to appropriate wells of a 96 well microfluor plate and preincubated at 37° for 30 min. The reaction is started by the addition of 0.5 nM of activated MMP9. Stock solutions of each inhibitor are prepared by dissolving in 100% DMSO. Inhibitors are added into the assay mixture from the diluted solution with 100% DMSO prepared from the stock solutions. An equal volume of DMSO is added to controls. The final concentration of DMSO from inhibitor and substrate solutions is 5.0%. The increase of fluorescence is monitored at 460 nm with excitation at 355 nm. A time point on a linear part of the curve is chosen to determine the activity. The inhibition results are expressed as the inhibitor concentration that produce 50% inhibition (IC50) of the activity in the control reaction.
Regarding “2-[(Cyclopropylmethoxy-benzenesulfonyl)-(4-[1,2,4]triazol-1-yl-benzyl)-amino]-N-hydroxyacetamide-hydrochloride salt [Example 82b]”, the pIC50 was 7.97.
In the case of `COc1ccc(CN(CC(=O)NO)S(=O)(=O)c2ccc(OCCCCl)cc2)cc1` [Example 68, 2-{[4-(3-chloro-propoxy)-benzenesulfonyl]-(4-methoxy-benzyl)amino}-N-hydroxy-acetamide] it was 8.92.
The same measure for `C=CCCOc1ccc(S(=O)(=O)N(CC(=O)NO)Cc2ccc(-n3cncn3)cc2)cc1` [Example 79, 2-[(4-but-3-enyloxy-benzenesulfonyl)-(4-[1,2,4]triazol-1-yl-benzyl)-amino]-N-hydroxy-acetamide-hydrochloride salt]: 9.70.
In the case of `C=CCCOc1ccc(S(=O)(=O)N(CC(=O)NO)Cc2ccc(-n3ccnc3)cc2)cc1` [Example 80, 2-[(4-But-3-enyloxy-benzenesulfonyl)-(4-imidazol-1-yl-benzyl)-amino]-N-hydroxy-acetamide-hydrochloride] it was 8.43.
Take `C=CCCOc1ccc(S(=O)(=O)N(CC(=O)NO)Cc2ccc(N3CCOCC3)cc2)cc1` [Example 81, 2-[(4-But-3-enyloxy-benzenesulfonyl)-(4-morpholin-4-yl-benzyl)-amino]-N-hydroxy-acetamide-hydrochloride]: the negative-log IC50 (pIC50) was 8.20.
In the case of `O=C(CN(Cc1ccc(-n2cncn2)cc1)S(=O)(=O)c1ccc(OCCC2CC2)cc1)NO` [Example 82a] it was 7.77; in that of `O=C(CN(Cc1ccc(-n2cncn2)cc1)S(=O)(=O)c1ccc(OCc2ccoc2)cc1)NO` [Example 82c], 8.13.
Regarding `C=CCCOc1ccc(S(=O)(=O)N(CC(=O)NO)Cc2cccc(F)n2)cc1` [Example 83a, 2-([4-But-3-enyloxy-benzenesulfonyl]-(6-fluoro-pyridine-2-yl)methyl-amino)-N-hydroxyacetamide], the pIC50 was 8.25.
Molecule `C=CCCOc1ccc(S(=O)(=O)N(CC(=O)NO)Cc2ccc(N3CCCC3)cc2)cc1` [Example 84a, 2-[(4-But-3-enyloxy-benzenesulfonyl)-(4-(pyrrolidin-1-yl)-benzyl)-amino]-N-hydroxyacetamide-hydrochloride] had a negative-log IC50 (pIC50) of 7.70.
